Species on record: Rattus norvegicus
Assay: DrugMatrix - Regimen: Daily Repeat
Assay type: toxicity, organism-based, Sprague-Dawley
Design: regimen Daily Repeat, gender Male, age 6-8 weeks
Conditions: in vivo, sc, route mini-PUMP - SUBCUTANEOUS, vehicle 100 % SALINE; for ABSOLUTE BASOPHIL / ABSOLUTE EOSINOPHIL / ABSOLUTE LYMPHOCYTE / ABSOLUTE MONOCYTE / ABSOLUTE SEGMENTED NEUTROPHIL / BASOPHIL / EOSINOPHIL / ERYTHROCYTE COUNT / HEMOGLOBIN / LEUKOCYTE COUNT / LYMPHOCYTE / MEAN CORPUSCULAR HEMOGLOBIN / MEAN CORPUSCULAR HEMOGLOBIN CONCENTRATION / MEAN CORPUSCULAR VOLUME / NUCLEATED RED BLOOD CELLS / PLATELET COUNT: tissue Blood; for ALANINE AMINOTRANSFERASE / ALBUMIN / ALKALINE PHOSPHATASE / ASPARTATE AMINOTRANSFERASE / BLOOD UREA NITROGEN / CARBON DIOXIDE / CHLORIDE / CHOLESTEROL / CREATININE / LACTATE DEHYDROGENASE / LIPASE / PHOSPHORUS / POTASSIUM / SODIUM / TOTAL BILIRUBIN / TOTAL PROTEIN: tissue Plasma
[1] = 0 mg/kg, 72 h, dose level Control, time 3 day
[2] = 0 mg/kg, 120 h, dose level Control, time 5 day
[3] = 0 mg/kg, […], dose level Control, time 14 day
[4] = […], 72 h, dose 0.77 mg/Kg, dose level High, time 3 day
[5] = […], 120 h, dose 0.77 mg/Kg, dose level High, time 5 day

CNCC(O)c1ccc(O)c(O)c1 (configuration not stated) [RACEPINEPHRINE]
ABSOLUTE BASOPHIL [1]: 0 CELLS/uL
ABSOLUTE EOSINOPHIL [1]: 77.17 CELLS/uL
ABSOLUTE LYMPHOCYTE [1]: 14293.83 CELLS/uL
ABSOLUTE MONOCYTE [1]: 354 CELLS/uL
ABSOLUTE SEGMENTED NEUTROPHIL [1]: 1658.33 CELLS/uL
BASOPHIL [1]: 0%
EOSINOPHIL [1]: 0.5%
ERYTHROCYTE COUNT [1]: 6.27 x10E6/uL
HEMOGLOBIN [1]: 13.4 G/DL
LEUKOCYTE COUNT [1]: 16.38 x10E3/uL
LYMPHOCYTE [1]: 87.17%
MEAN CORPUSCULAR HEMOGLOBIN [1]: 21.42 pg
MEAN CORPUSCULAR HEMOGLOBIN CONCENTRATION [1]: 36.27 G/DL
MEAN CORPUSCULAR VOLUME [1]: 59.03 fL
NUCLEATED RED BLOOD CELLS [1]: 0 /100WBC
PLATELET COUNT [1]: 904.67 x10E3/uL
ALANINE AMINOTRANSFERASE [1]: 48.33 u/L
ALBUMIN [1]: 3.82 G/DL
ALKALINE PHOSPHATASE [1]: 282.33 u/L
ASPARTATE AMINOTRANSFERASE [1]: 86.83 u/L
BLOOD UREA NITROGEN [1]: 20.17 mg/dL
CARBON DIOXIDE [1]: 34.67 mmol/L
CHLORIDE [1]: 102 MEQ/L
CHOLESTEROL [1]: 71.5 mg/dL
CREATININE [1]: 0.2 mg/dL
LACTATE DEHYDROGENASE [1]: 159 u/L
LIPASE [1]: 9 u/L
PHOSPHORUS [1]: 10.12 mg/dL
POTASSIUM [1]: 5.92 MEQ/L
SODIUM [1]: 147.8 MEQ/L
TOTAL BILIRUBIN [1]: 0.2 mg/dL
TOTAL PROTEIN [1]: 6.05 G/DL
ABSOLUTE BASOPHIL [2]: 0 CELLS/uL
ABSOLUTE EOSINOPHIL [2]: 0 CELLS/uL
ABSOLUTE LYMPHOCYTE [2]: 14257.33 CELLS/uL
ABSOLUTE MONOCYTE [2]: 326 CELLS/uL
ABSOLUTE SEGMENTED NEUTROPHIL [2]: 3216.67 CELLS/uL
BASOPHIL [2]: 0%
EOSINOPHIL [2]: 0%
ERYTHROCYTE COUNT [2]: 6.11 x10E6/uL
HEMOGLOBIN [2]: 13.18 G/DL
LEUKOCYTE COUNT [2]: 17.8 x10E3/uL
LYMPHOCYTE [2]: 80.5%
MEAN CORPUSCULAR HEMOGLOBIN [2]: 21.62 pg
MEAN CORPUSCULAR HEMOGLOBIN CONCENTRATION [2]: 36.42 G/DL
MEAN CORPUSCULAR VOLUME [2]: 59.37 fL
NUCLEATED RED BLOOD CELLS [2]: 0 /100WBC
PLATELET COUNT [2]: 1311 x10E3/uL
ALANINE AMINOTRANSFERASE [2]: 47 u/L
ALBUMIN [2]: 3.83 G/DL
ALKALINE PHOSPHATASE [2]: 260.33 u/L
ASPARTATE AMINOTRANSFERASE [2]: 76.17 u/L
BLOOD UREA NITROGEN [2]: 14.67 mg/dL
CARBON DIOXIDE [2]: 31.33 mmol/L
CHLORIDE [2]: 101.17 MEQ/L
CHOLESTEROL [2]: 75 mg/dL
LACTATE DEHYDROGENASE [2]: 147.33 u/L
LIPASE [2]: 9.33 u/L
PHOSPHORUS [2]: 10.97 mg/dL
POTASSIUM [2]: 6 MEQ/L
SODIUM [2]: 145.52 MEQ/L
TOTAL PROTEIN [2]: 5.83 G/DL
ABSOLUTE BASOPHIL [3]: 0 CELLS/uL
ABSOLUTE EOSINOPHIL [3]: 64.5 CELLS/uL
ABSOLUTE LYMPHOCYTE [3]: 12507.83 CELLS/uL
ABSOLUTE MONOCYTE [3]: 380.33 CELLS/uL
ABSOLUTE SEGMENTED NEUTROPHIL [3]: 2414 CELLS/uL
BASOPHIL [3]: 0%
EOSINOPHIL [3]: 0.5%
ERYTHROCYTE COUNT [3]: 6.1 x10E6/uL
HEMOGLOBIN [3]: 12.88 G/DL
LEUKOCYTE COUNT [3]: 15.37 x10E3/uL
LYMPHOCYTE [3]: 80.83%
MEAN CORPUSCULAR HEMOGLOBIN [3]: 21.18 pg
MEAN CORPUSCULAR HEMOGLOBIN CONCENTRATION [3]: 36.43 G/DL
MEAN CORPUSCULAR VOLUME [3]: 58.17 fL
NUCLEATED RED BLOOD CELLS [3]: 0.17 /100WBC
PLATELET COUNT [3]: 1016 x10E3/uL
ALANINE AMINOTRANSFERASE [3]: 53.33 u/L
ALBUMIN [3]: 3.93 G/DL
ALKALINE PHOSPHATASE [3]: 319.83 u/L
ASPARTATE AMINOTRANSFERASE [3]: 84 u/L
BLOOD UREA NITROGEN [3]: 15.5 mg/dL
CARBON DIOXIDE [3]: 34 mmol/L
CHLORIDE [3]: 101.83 MEQ/L
CHOLESTEROL [3]: 57 mg/dL
CREATININE [3]: 0.21 mg/dL
LACTATE DEHYDROGENASE [3]: 104.67 u/L
LIPASE [3]: 9.17 u/L
PHOSPHORUS [3]: 11.12 mg/dL
POTASSIUM [3]: 5.81 MEQ/L
SODIUM [3]: 144.85 MEQ/L
TOTAL BILIRUBIN [3]: 0.18 mg/dL
TOTAL PROTEIN [3]: 5.92 G/DL
ABSOLUTE BASOPHIL [4]: 0 CELLS/uL
ABSOLUTE EOSINOPHIL [4]: 65.33 CELLS/uL
ABSOLUTE LYMPHOCYTE [4]: 15348.67 CELLS/uL
ABSOLUTE MONOCYTE [4]: 375.67 CELLS/uL
ABSOLUTE SEGMENTED NEUTROPHIL [4]: 2177 CELLS/uL
BASOPHIL [4]: 0%
ERYTHROCYTE COUNT [4]: 6.29 x10E6/uL
HEMOGLOBIN [4]: 13.53 G/DL
LEUKOCYTE COUNT [4]: 17.97 x10E3/uL
MEAN CORPUSCULAR HEMOGLOBIN [4]: 21.53 pg
MEAN CORPUSCULAR HEMOGLOBIN CONCENTRATION [4]: 36.13 G/DL
MEAN CORPUSCULAR VOLUME [4]: 59.7 fL
NUCLEATED RED BLOOD CELLS [4]: 0 /100WBC
PLATELET COUNT [4]: 1245.67 x10E3/uL
ALANINE AMINOTRANSFERASE [4]: 52.67 u/L
ALBUMIN [4]: 4 G/DL
ALKALINE PHOSPHATASE [4]: 340.67 u/L
ASPARTATE AMINOTRANSFERASE [4]: 85 u/L
BLOOD UREA NITROGEN [4]: 16.33 mg/dL
CARBON DIOXIDE [4]: 25.67 mmol/L
CHLORIDE [4]: 101 MEQ/L
CHOLESTEROL [4]: 83.33 mg/dL
LACTATE DEHYDROGENASE [4]: 441.33 u/L
LIPASE [4]: 9.67 u/L
PHOSPHORUS [4]: 12.23 mg/dL
POTASSIUM [4]: 6.83 MEQ/L
SODIUM [4]: 145.53 MEQ/L
TOTAL BILIRUBIN [4]: 0.13 mg/dL
TOTAL PROTEIN [4]: 6.3 G/DL
ABSOLUTE BASOPHIL [5]: 0 CELLS/uL
ABSOLUTE EOSINOPHIL [5]: 0 CELLS/uL
ABSOLUTE LYMPHOCYTE [5]: 14606 CELLS/uL
ABSOLUTE MONOCYTE [5]: 577.33 CELLS/uL
ABSOLUTE SEGMENTED NEUTROPHIL [5]: 4283.33 CELLS/uL
BASOPHIL [5]: 0%
EOSINOPHIL [5]: 0%
ERYTHROCYTE COUNT [5]: 6.1 x10E6/uL
HEMOGLOBIN [5]: 13.07 G/DL
LEUKOCYTE COUNT [5]: 19.47 x10E3/uL
LYMPHOCYTE [5]: 75%
MEAN CORPUSCULAR HEMOGLOBIN [5]: 21.43 pg
MEAN CORPUSCULAR HEMOGLOBIN CONCENTRATION [5]: 36.87 G/DL
MEAN CORPUSCULAR VOLUME [5]: 58.1 fL
NUCLEATED RED BLOOD CELLS [5]: 0 /100WBC
PLATELET COUNT [5]: 1295.33 x10E3/uL
ALANINE AMINOTRANSFERASE [5]: 52.33 u/L
ALBUMIN [5]: 3.83 G/DL
ALKALINE PHOSPHATASE [5]: 328 u/L
ASPARTATE AMINOTRANSFERASE [5]: 85.67 u/L
CHOLESTEROL [5]: 64.67 mg/dL
CREATININE [5]: 0.15 mg/dL
LACTATE DEHYDROGENASE [5]: 386.33 u/L
LIPASE [5]: 9 u/L
PHOSPHORUS [5]: 12.27 mg/dL
POTASSIUM [5]: 6.8 MEQ/L
SODIUM [5]: 147.2 MEQ/L
TOTAL BILIRUBIN [5]: 0.1 mg/dL
TOTAL PROTEIN [5]: 5.9 G/DL
